pIC50: −log10 of the molar value. “And” between values parts separate entries of the source, which are not always exact repeats. Identical values can stand only once. Where no end group is shown, it is not given here.
What was measured:
E. coli TOP10 = test: Membrane damage assay in MHB II (GFP loss, PI uptake); format: cell-based; details: n = 3
mouse red blood cells = test: Hemolysis assay; format: cell-based; details: 1 h, 37°C, DPBS, relative to Triton-X100 lysis control, triplicates
Protocol: Mouse blood was obtained from the ETH Phenomics Center. The erythrocytes were isolated by centrifugation at 500 × g for 10 min and removal of the blood plasma. The cells were washed three times by gently resuspending them in an equal volume of DPBS followed by centrifugation. After the last resuspension, the cells were diluted 1:50 in DPBS. For the hemolysis assay, a log2-serial dilution of each peptide was prepared as described for the MIC but using DPBS and 96-well plates (U-bottom, PP, 650201, Greiner) with a final volume of 100 μl. As lysis control, 2.5% Triton-X100 in DPBS was used in well 10, well 11 served as non-treated control (no peptide added), and well 12 as blank. To each well of the dilution plate, 100 μl of the red blood cells suspension was added. The plate was incubated for 1 h at 37°C. After incubation, the plate was centrifuged at 500 × g for 10 min and 100 μl of the supernatant was transferred to a clean 96-well plate (F-bottom, PS, 655101, Greiner). The absorbance was measured at 540 nm using an Infinite M1000 PRO plate reader (Tecan) and corrected by the measurements from the untreated wells. The lysis of each peptide concentration was expressed relative to the lysis control (set as 100% lysis). The hemolysis assay was performed in biological triplicates.

HeLa cells = test: In vitro toxicity assay (MTT), HeLa; format: cell-based, human
Protocol: (§1) HeLa epithelioid cervix carcinoma cells (originally purchased: 93021013, Sigma Aldrich) and HEK 293 human embryonic kidney (originally purchased: 85120602, Sigma Aldrich) were routinely cultivated in Dulbecco’s MEM high glucose (DMEM, with L-glutamine, without phenol red, 1-26P32, Bioconcept, Allschwil, CH), supplemented with 10% fetal bovine serum (heat inactivated, sterile filtered, F9665, Sigma Aldrich) and 100 IU ml^−1/100 μg ml^−1 Penicillin/streptomycin (4-01F00, Bioconcept) at 37°C with 5% CO2. Cells were split at a confluency of ≤ 90% (every 3 to 4 days) and maintained for max. 10 passages before a fresh aliquot of cells were seeded. […] The cell concentration was determined using a Countess 2 device (Thermo Fisher Scientific) and approx. 5000 (HeLa) or 25,000 (HEK 293) cells were seeded into wells of a 96-well plate (F-bottom, PS, 655180, Greiner) together with 100 μl DMEM. […] For each dilution series, the IC50 value was determined by computing a weighted n-parameters logistic regression using the “nplr” package in R (https://CRAN.R-project.org/package=nplr). […]

HEK 293 cells = format: cell-based, human; details: MTT, 24 h, 37°C, triplicates, read-out: Toxicity IC50
Protocol: as §1

[1] = test system: HEK 293 cells transfected with a luciferase construct; test: Whole cell translation inhibition assay; format: cell-based, human; details: HEK 293 whole-cell assay; 24 h incubation; luminescence; n = 1
Protocol: HEK293 cells were cultivated in DMEM medium supplemented with 10% fetal bovine serum and transfected with vector pRM-hFluc carrying a Fluc gene under constitutive CMV promotor control using Xfect™ Transfection Reagent (Takara, Japan) according to the manufacturer’s protocol. Transfected cells were seeded into a 24-well plate 6 h post-transfection and pre-incubated overnight prior to addition of peptides in the next morning. Following 24 h of incubation in the presence of the peptides, cells were lysed using Lysis Buffer (Promega) and the luminescence was measured in a white microtiter plate using the FLx800 luminometer (Bio-Tek Instruments, USA).

[2] = approximately 16-fold above its MIC (~35 μM)
[3] = at the MIC up to 8-fold higher concentrations

Sequence: RRIRIRPPRLPRPRPRPYFMPRP [Bac7PS]
- PI-positive cells (E. coli TOP10; [2]): ~ 3%
- cells that lost GFP (E. coli TOP10; [2]): 26%
- PI-positive cells (E. coli TOP10; [3]): ~ 1%
- cells that retained GFP levels (E. coli TOP10; [3]): ~ 99%
- Hemolysis of mouse red blood cells (mouse red blood cells; 1xMIC (MIC measured for E. coli ATCC 25922)): < 4% and 3.1%
- Hemolysis of mouse red blood cells (mouse red blood cells; 4xMIC (MIC measured for E. coli ATCC 25922)): < 7% and 3.8%
- pIC50 (HeLa cells; HeLa, MTT, 24 h, 37°C, triplicates): 3.28
- therapeutic index (TI), Toxicity/MIC (HeLa cells; IC50 HeLa divided by MIC50 from clinical isolates): 180
- pIC50 (HEK 293 cells): 3.12
- concentration above which increased translational inhibition relative to Bac7_1-23 appeared [1]: above 200 μM

From PMC9112550, “Optimization of the antimicrobial peptide Bac7 by deep mutational scanning” (BMC Biology, 2022)
